In US20230023092A1, “TREATMENT OF DEPRESSION AND OTHER VARIOUS DISORDERS WITH PSILOCYBIN” (COMPASS […], priority 2019, published 2023):

Test system: healthy subjects
Assay: Phase 1 study: adverse events (TEAEs, MedDRA coded)
Type: in vivo, human
Experimental: A Phase 1 randomized, double-blind, placebo-controlled study to evaluate the effect of psilocybin on cognitive and emotional processing as compared to placebo in healthy volunteers was conducted. The study investigated the short-term (Day 7) and long-term (Day 28) effects of moderate (10 mg) and high doses (25 mg) of psilocybin on key domains of cognition, such as episodic memory, attention, working and spatial memory, social cognition and elements of executive function, including cognitive flexibility.
Each subject was assigned 1 treatment bottle containing 5 capsules packaged in a double-blind fashion, depending on the randomized treatment arm, the bottle contained one of the following: • a. Psilocybin 10 mg: 2×5-mg oral psilocybin capsules plus 3×placebo capsules • b. Psilocybin 25 mg: 5×5-mg oral psilocybin capsules • c. Placebo: 5×placebo capsules
Each 5-mg oral psilocybin capsules comprised 5 mg crystalline psilocybin in the form or Polymorph A, 12.5 mg of SMCC 50, 79.5 mg of SMCC 90, 1 mg sodium starch glycolate, 1 mg colloidal silicon dioxide, and 1 mg sodium stearyl fumarate
Adverse events: Throughout the course of the study, all AEs were monitored and recorded. Each AE was classified according to the following criteria: • i. […] Moderate: The AE produces some impairment of functioning, but is not hazardous to the subject's health. • iii. Severe: The AE produces significant impairment of functioning or incapacitation and is a definite hazard to the subject's health.
Visit 3 (V3): Drug Administration (Day 0): The subject was asked to eat a light breakfast at least two hours prior to coming to the clinic for study drug administration. On Day 0 (V3), the subject underwent the SSTS, had vital signs obtained, medications reviewed, AEs recorded and eligibility reviewed prior to being randomized to study drug. The study drug was administered to up to six subjects simultaneously in individual beds separated by a curtain. The subject was invited to put on eyeshades and headphones, lie down and listen to calming music for the rest of the session (six hours). The subject was supported 1:1 with a chaperone and supervised by the study psychiatrist and lead therapist.
During administration of psilocybin, each subject received one-on-one support from a trained assisting therapist and each dosing session was supervised by a study psychiatrist and a lead therapist. The study drug was administered simultaneously to up to six participants as a single 5-capsule oral dose (10 mg psilocybin: 2×5-mg psilocybin capsules plus 3×placebo capsules; 25 mg psilocybin: 5×5-mg psilocybin capsules; placebo: 5×placebo capsules). Twenty-five dosing sessions were completed, with up to six participants dosed simultaneously per session. Each session lasted approximately 6 to 8 hours with subjects encouraged to relax and engage in introspection for the duration. After the acute effects of the study drug had subsided, subjects were discharged.

Structure (SMILES): CN(C)CCc1c[nH]c2cccc(OP(=O)(O)O)c12 [Psilocybin, psilocybin]
- Hypoaesthesia, worst severity Moderate, N (%) (10 mg oral): 0
- Hypoaesthesia, worst severity Severe, Events (10 mg oral): 0
- Hypoaesthesia, worst severity Severe, N (%) (10 mg oral): 0
- Illusion, Events (10 mg oral): 25
- Illusion, N (%) (10 mg oral): 19 (63.3)
- Illusion, worst severity Mild, Events (10 mg oral): 7
- Illusion, worst severity Mild, N (%) (10 mg oral): 7 (23.3)
- Illusion, worst severity Moderate, Events (10 mg oral): 16
- Illusion, worst severity Moderate, N (%) (10 mg oral): 12 (40.0)
- Illusion, worst severity Severe, Events (10 mg oral): 0
- Illusion, worst severity Severe, N (%) (10 mg oral): 0
- Infections and infestations, Events (10 mg oral): 4
- Infections and infestations, N (%) (10 mg oral): 4 (13.3)
- Infections and infestations, worst severity Mild, Events (10 mg oral): 2
- Infections and infestations, worst severity Mild, N (%) (10 mg oral): 2 (6.7)
- Infections and infestations, worst severity Moderate, Events (10 mg oral): 2
- Infections and infestations, worst severity Moderate, N (%) (10 mg oral): 2 (6.7)
- Infections and infestations, worst severity Severe, Events (10 mg oral): 0
- Infections and infestations, worst severity Severe, N (%) (10 mg oral): 0
- Investigations, Events (10 mg oral): 2
- Investigations, N (%) (10 mg oral): 2 (6.7)
- Investigations, worst severity Mild, Events (10 mg oral): 2
- Investigations, worst severity Mild, N (%) (10 mg oral): 2 (6.7)
- Investigations, worst severity Moderate, Events (10 mg oral): 0
- Investigations, worst severity Moderate, N (%) (10 mg oral): 0
- Investigations, worst severity Severe, Events (10 mg oral): 0
- Investigations, worst severity Severe, N (%) (10 mg oral): 0
- Memory impairment, Events (10 mg oral): 1
- Memory impairment, N (%) (10 mg oral): 1 (3.3)
- Mental fatigue, Events (10 mg oral): 0
- Mental fatigue, N (%) (10 mg oral): 0
- Mood altered, Events (10 mg oral): 23
- Mood altered, N (%) (10 mg oral): 13 (43.3)
- Mood altered, worst severity Mild, Events (10 mg oral): 2
- Mood altered, worst severity Mild, N (%) (10 mg oral): 2 (6.7)
- Mood altered, worst severity Moderate, Events (10 mg oral): 8
- Mood altered, worst severity Moderate, N (%) (10 mg oral): 5 (16.7)
- Mood altered, worst severity Severe, Events (10 mg oral): 9
- Mood altered, worst severity Severe, N (%) (10 mg oral): 6 (20.0)
- Musculoskeletal and connective tissue disorders, Events (10 mg oral): 1
- Musculoskeletal and connective tissue disorders, N (%) (10 mg oral): 1 (3.3)
- Musculoskeletal and connective tissue disorders, worst severity Mild, Events (10 mg oral): 0
- Musculoskeletal and connective tissue disorders, worst severity Mild, N (%) (10 mg oral): 0
- Musculoskeletal and connective tissue disorders, worst severity Moderate, Events (10 mg oral): 1
- Musculoskeletal and connective tissue disorders, worst severity Moderate, N (%) (10 mg oral): 1 (3.3)
- Musculoskeletal and connective tissue disorders, worst severity Severe, Events (10 mg oral): 0
- Musculoskeletal and connective tissue disorders, worst severity Severe, N (%) (10 mg oral): 0
- Nausea, Events (10 mg oral): 1
- Nausea, N (%) (10 mg oral): 1 (3.3)
- Nervous system disorders, Events (10 mg oral): 35
- Nervous system disorders, N (%) (10 mg oral): 21 (70.0)
- Nervous system disorders, worst severity Mild, Events (10 mg oral): 23
- Nervous system disorders, worst severity Mild, N (%) (10 mg oral): 15 (50.0)
- Nervous system disorders, worst severity Moderate, Events (10 mg oral): 8
- Nervous system disorders, worst severity Moderate, N (%) (10 mg oral): 6 (20.0)
- Nervous system disorders, worst severity Severe, Events (10 mg oral): 0
- Nervous system disorders, worst severity Severe, N (%) (10 mg oral): 0
- Paraesthesia, Events (10 mg oral): 4
- Paraesthesia, N (%) (10 mg oral): 4 (13.3)
- Paraesthesia, worst severity Mild, Events (10 mg oral): 4
- Paraesthesia, worst severity Mild, N (%) (10 mg oral): 4 (13.3)
- Paraesthesia, worst severity Moderate, Events (10 mg oral): 0
- Paraesthesia, worst severity Moderate, N (%) (10 mg oral): 0
- Paraesthesia, worst severity Severe, Events (10 mg oral): 0
- Paraesthesia, worst severity Severe, N (%) (10 mg oral): 0
- Psychiatric disorders, Events (10 mg oral): 121
- Psychiatric disorders, N (%) (10 mg oral): 27 (90.0)
- Psychiatric disorders, worst severity Mild, Events (10 mg oral): 6
- Psychiatric disorders, worst severity Mild, N (%) (10 mg oral): 4 (13.3)
- Psychiatric disorders, worst severity Moderate, Events (10 mg oral): 29
- Psychiatric disorders, worst severity Moderate, N (%) (10 mg oral): 13 (43.3)
- Psychiatric disorders, worst severity Severe, Events (10 mg oral): 21
- Psychiatric disorders, worst severity Severe, N (%) (10 mg oral): 10 (33.3)
- Psychomotor skills impaired, Events (10 mg oral): 1
- Psychomotor skills impaired, N (%) (10 mg oral): 1 (3.3)
- Respiratory, thoracic and mediastinal disorders, Events (10 mg oral): 0
- Respiratory, thoracic and mediastinal disorders, N (%) (10 mg oral): 0
- Selected TEAE: Nervous system disorders, Events (10 mg oral): 2
- Selected TEAE: Nervous system disorders, N (%) (10 mg oral): 2 (6.7)
- Selected TEAE: Psychiatric disorders, Events (10 mg oral): 104
- Selected TEAE: Psychiatric disorders, N (%) (10 mg oral): 27 (90.0)
- Somatic hallucination, Events (10 mg oral): 8
- Somatic hallucination, N (%) (10 mg oral): 8 (26.7)
- Somatic hallucination, worst severity Mild, Events (10 mg oral): 1
- Somatic hallucination, worst severity Mild, N (%) (10 mg oral): 1 (3.3)
- Somatic hallucination, worst severity Moderate, Events (10 mg oral): 7
- Somatic hallucination, worst severity Moderate, N (%) (10 mg oral): 7 (23.3)
- Somatic hallucination, worst severity Severe, Events (10 mg oral): 0
- Somatic hallucination, worst severity Severe, N (%) (10 mg oral): 0
- Substance-induced psychotic disorder, Events (10 mg oral): 0
- Substance-induced psychotic disorder, N (%) (10 mg oral): 0
- Tension headache, Events (10 mg oral): 3
- Tension headache, N (%) (10 mg oral): 3 (10.0)
- Tension headache, worst severity Mild, Events (10 mg oral): 1
- Tension headache, worst severity Mild, N (%) (10 mg oral): 1 (3.3)
- Tension headache, worst severity Moderate, Events (10 mg oral): 2
- Tension headache, worst severity Moderate, N (%) (10 mg oral): 2 (6.7)
- Tension headache, worst severity Severe, Events (10 mg oral): 0
- Tension headache, worst severity Severe, N (%) (10 mg oral): 0
- Time perception altered, Events (10 mg oral): 2
- Time perception altered, N (%) (10 mg oral): 2 (6.7)
- Time perception altered, worst severity Mild, Events (10 mg oral): 1
- Time perception altered, worst severity Mild, N (%) (10 mg oral): 1 (3.3)
- Time perception altered, worst severity Moderate, Events (10 mg oral): 1
- Time perception altered, worst severity Moderate, N (%) (10 mg oral): 1 (3.3)
- Time perception altered, worst severity Severe, Events (10 mg oral): 0
- Time perception altered, worst severity Severe, N (%) (10 mg oral): 0
- Adverse events reported by % of subjects (10 mg oral, 12-week study): 96.7%
- Reported 'Mood altered' events: Being less judgmental (number) (10 mg psilocybin (n = 30)): 1
- Reported 'Mood altered' events: Calm (number) (10 mg psilocybin (n = 30)): 0
- Reported 'Mood altered' events: Clarity of thought (number) (10 mg psilocybin (n = 30)): 0
- Reported 'Mood altered' events: Contemplative state (number) (10 mg psilocybin (n = 30)): 1
- Reported 'Mood altered' events: Feeling more moody/sensitive (number) (10 mg psilocybin (n = 30)): 1
- Reported 'Mood altered' events: Feeling of adrenaline release (number) (10 mg psilocybin (n = 30)): 0
- Reported 'Mood altered' events: Feeling rested (number) (10 mg psilocybin (n = 30)): 1
- Reported 'Mood altered' events: Increased compassion (number) (10 mg psilocybin (n = 30)): 0
- Reported 'Mood altered' events: Increased creativity (number) (10 mg psilocybin (n = 30)): 0
- Reported 'Mood altered' events: Increased empathy (number) (10 mg psilocybin (n = 30)): 2
- Reported 'Mood altered' events: Increased sense of connectedness (number) (10 mg psilocybin (n = 30)): 0
- Reported 'Mood altered' events: Increased wit (number) (10 mg psilocybin (n = 30)): 1
- Reported 'Mood altered' events: Introspection (number) (10 mg psilocybin (n = 30)): 5
- Reported 'Mood altered' events: Laughter (number) (10 mg psilocybin (n = 30)): 1
- Reported 'Mood altered' events: More socially upbeat (number) (10 mg psilocybin (n = 30)): 0
- Reported 'Mood altered' events: Negative mood (number) (10 mg psilocybin (n = 30)): 0
- Reported 'Mood altered' events: Reflections (number) (10 mg psilocybin (n = 30)): 3
- Reported 'Mood altered' events: Saw themselves from a new perspective (number) (10 mg psilocybin (n = 30)): 0
- Reported 'Mood altered' events: Sense of oneness (number) (10 mg psilocybin (n = 30)): 4
- Reported 'Mood altered' events: Sense of openness (number) (10 mg psilocybin (n = 30)): 1
- Reported 'Mood altered' events: Unusual appreciation of music (number) (10 mg psilocybin (n = 30)): 0
- AEs deemed potentially related to study treatment, % of AEs of the arm (25 mg oral): 95.9%
- Affect lability, Events (25 mg oral): 3
